“Also recorded” adds a separate entry of the source.
What was measured:
[1] = tested on: ovaries cultured for 17 days; assay: Histological analysis of ovary obtained by in vitro culture (H&E, laminin immunofluorescence); assay type: cell-based, mouse
Experimental: The ovaries cultured for 17 days in (i) FBS group or (v) FBS/10 μM ICI group and the ovaries from female mouse at 10 days after birth were processed for hematoxylin-eosin staining and laminin immunofluorescence staining.
Concretely, the ovaries were fixed for 4 hours at room temperature in 1% paraformaldehyde (PFA)/0.1% glutaraldehyde in 0.05 M phosphate buffer. For H&E staining, the ovaries were embedded in paraffin blocks after a routine protocol, and 4-μm-thick serial sections were prepared. After H&E staining, sections were observed under an IX71 microscope (Olympus). For laminin immunofluorescence staining, ovaries were cut into four to eight pieces, and the tissue sections were incubated for 3 days at 4° C. with an anti-laminin rabbit polyclonal antibody (Abcam) at a dilution of 1:100. Then the tissue sections of the ovaries were incubated for 3 days at 4° C. with an Alexa Fluor 488-conjugated goat anti-rabbit IgG at a dilution of 1:500 (Molecular Probes, Thermo Fisher Scientific Inc.). The obtained tissue sections of the ovaries were further processed for 4′,6-diamidino-2-phenylindole (DAPI; Life Technologies) staining. The tissue sections of the ovaries were observed under Zeiss LSM 710 confocal microscope.

[2] = tested on: primordial germ cells in gonads from female mouse fetuses at 12.5 dpc; assay: In vitro organ culture of gonad (secondary follicle formation); assay type: cell-based
Experimental: For the medium of the organ culture, the basal medium supplemented with FBS (Gibco, Thermo Fisher Scientific Inc.), SPS (SAGE In vitro Fertilization), the estrogen receptor antagonist, 7α, 17β-[9-([4,4,5,5,5-pentafluoropentyl]sulfinyl)nonyl]estra-1,3,5(10)-triene-3,17-diol; ICI 182,780 (ICI; Tocris Bioscience), 4-hydroxytamoxifen (Sigma-Aldrich), and MPP (Methylpiperidino pyrazole; Cayman Chemical) were added at the indicated concentrations for each experimental group below. The α-MEM medium (Gibco, Thermo Fisher Scientific Inc.) supplemented with 1.5 mM 2-O-α-d glucopyranosyl-1-ascorbic acid (Tokyo Chemical Industry), 10 units/mL penicillin, and 10 μg/mL streptomycin (Sigma-Aldrich) was used as a basal medium (referred to the basal medium hereafter as α-MEM).
ICI 182,780 and 4-hydroxytamoxifen was prepared as follows. ICI 182,780 and 4-hydroxytamoxifen was diluted to 100 mM using DMSO, and cryopreserved stock was prepared. MPP was diluted to 10 mM using DMSO, and cryopreserved stock was prepared. 1 mM solutions of ICI 182, 780 and 4-hydroxytamoxifen were prepared by diluting the 100 mM stocks 100-fold with DMSO just before use and were added to the medium at the indicated final concentrations for each experimental group. MPP was added to the medium at 1 μM as the final concentration just before use.
The gonads for the organ culture were collected with mesonephros or without mesonephros from female mouse fetuses at 12.5 dpc (FIG. 1a). 2.2 ml of the medium was added to each 6-well culture plate used for the organ culture. Transwell®-COL membrane (3.0-μm pore size, 24-mm diameter; Corning) was put on each well of the 6-well culture plate. The gonads were transferred on the membrane and were cultured for 17 days at 37° C. under 5% CO2 and 95% air. Approximately half of the medium in each well was replaced with fresh medium every other day. In the example in which the gonad was cultured with mesonephros, mesonephros was removed from the gonad at day 7 of the organ culture.
The in vitro organ culture of the gonads was performed according to the following conditions described below. The gonads were cultured for total 17 days in each conditions below (FIG. 2):
(i) culture for the complete 17 days period in 10% FBS containing α-MEM (α-MEM+FBS; FBS group);
(ii) culture for the complete 17 days period in 10% SPS containing α-MEM (α-MEM+SPS; SPS group);
(iii) culture for the complete 17 days period in 10% KSR containing α-MEM (α-MEM+KSR; KSR group);
(iv) culture in 10% FBS containing α-MEM for 4 days with a shift to 10% SPS containing α-MEM for 6 days from day 5 and a shift to 10% FBS containing α-MEM until day 17 from day 11 (αMEM+FBS/SPS; FBS/SPS group);
(v) culture in 10% FBS containing α-MEM for 4 days with a shift to 10% FBS containing α-MEM with the addition of 10 nM, 100 nM, 1 μM, 5 μM, or 10 μM (final concentration) ICI for 6 days from day 5 and a shift to 10% FBS containing α-MEM until day […] (αMEM+FBS/10 nM ICI; FBS/10 nM ICI group, αMEM+FBS/100 nM ICI; FBS/100 nM ICI group, αMEM+FBS/1 μM ICI; FBS/1 μM ICI group, αMEM+FBS/5 μM ICI; FBS/5 μM ICI group, or αMEM+FBS/10 μM ICI; FBS/10 μM ICI group);
(vi) culture in 10% FBS containing α-MEM for 4 days with a shift to 10% FBS containing α-MEM with the addition of 1 μM (final concentration) 4-hydroxytamoxifen for 6 days from day 5 and a shift to 10% FBS containing α-MEM until day 17 from day 11 (αMEM+FBS/1 μM Tamoxifen; FBS/1 μM Tamoxifen group);
(vii) culture in 10% FBS containing α-MEM for 4 days with a shift to 10% FBS containing α-MEM with the addition of 1 μM (final concentration) MPP for 6 days from day 5 and a shift to 10% FBS containing α-MEM until day 17 from day 11 (αMEM+FBS/1 μM MPP; FBS/1 μM MPP group).
Vitrification and warming were conducted as follows by reference to Wang, X. et al., “Successful in vitro culture of pre-antral follicles derived from vitrified murine ovarian tissue: oocyte maturation, fertilization, and live births.” Reproduction 141, 183-191 (2011). […]

C[C@]12CC[C@@H]3c4ccc(O)cc4C[C@@H](CCCCCCCCC[S+]([O-])CCCC(F)(F)C(F)(F)F)[C@H]3[C@@H]1CC[C@@H]2O (stereo partly drawn) [ICI, 7α, 17β-[9-([4,4,5,5,5-pentafluoropentyl]sulfinyl)nonyl]estra-1,3,5(10)-triene-3,17-diol]
laminin localization (immunofluorescence) ([1]; (v) FBS/10 μM ICI group, day 17): laminin is circularly localized around the follicle | multioocyte follicle (multiple oocytes in one follicle) ([1]; (v) FBS/ICI group, FIG. 5b): very few | follicle morphology of the ovary under an optical microscope ([2]; (v) FBS/ICI group, FIG. 3d (10 μM ICI)): abnormalities were significantly improved | number of the collected secondary follicles ([2]; (v) ICI group, 10 nM, 100 nM, 1 μM, 5 μM or 10 μM ICI day 5-11, FIG. 4): increased depending on the ICI concentration; also recorded: significantly increased compared to FBS group | No. of collected follicles ([2]; FBS/1 μM ICI group (ICI day 5-11), 19 cultured gonads): 641 | No. of collected follicles ([2]; FBS/5 μM ICI group (ICI day 5-11), 6 cultured gonads): 312 | No. of collected follicles ([2]; FBS/10 μM ICI group (ICI day 5-11), 6 cultured gonads): 505 | No. of collected follicles ([2]; Vitrification FBS/1 μM ICI (vitrified-warmed gonads), 4 cultured gonads): 57 | follicles obtained from one ovary ([2]; vitrified and warmed gonads, FBS/1 μM ICI conditions): about 14

Source: patent publication US11773368B2, “Culture method for differentiating primordial germ cells into functionally mature oocytes” (TOKYO UNIVERSITY OF AGRICULTURE, priority 2015, dated 2023)
